Reference: ChEMBL document CHEMBL3868597, “Modulating amyloid-β aggregation: The effects of peptoid side chain placement and chirality” (Bioorg Med Chem, 2017)
Active and inactive are the calls of the source. The calls are words filed in the database; no cut-off is given here. Non-standard residues stand in square brackets, D forms with d. Residues, ends and D or L forms follow the SMILES beside them. N(1S-Me-propyl)Gly = CC[C@H](C)NCC(=O)O; Nspe = C[C@H](NCC(=O)O)c1ccccc1; Nphe = O=C(O)CNCc1ccccc1; NPrGly = CCCNCC(=O)O; Nlys = NCCCCNCC(=O)O

Experiments:
[1] = molecular target: Amyloid-beta precursor protein (Homo sapiens) (UniProt P05067); experiment: Inhibition of agitated amyloid beta (1 to 40) (unknown origin) aggregation assessed as increase in lag time at 100 uM by dot blot analysis relative to control
Chain of Amyloid-beta precursor protein (Homo sapiens) (P05067 whole entry): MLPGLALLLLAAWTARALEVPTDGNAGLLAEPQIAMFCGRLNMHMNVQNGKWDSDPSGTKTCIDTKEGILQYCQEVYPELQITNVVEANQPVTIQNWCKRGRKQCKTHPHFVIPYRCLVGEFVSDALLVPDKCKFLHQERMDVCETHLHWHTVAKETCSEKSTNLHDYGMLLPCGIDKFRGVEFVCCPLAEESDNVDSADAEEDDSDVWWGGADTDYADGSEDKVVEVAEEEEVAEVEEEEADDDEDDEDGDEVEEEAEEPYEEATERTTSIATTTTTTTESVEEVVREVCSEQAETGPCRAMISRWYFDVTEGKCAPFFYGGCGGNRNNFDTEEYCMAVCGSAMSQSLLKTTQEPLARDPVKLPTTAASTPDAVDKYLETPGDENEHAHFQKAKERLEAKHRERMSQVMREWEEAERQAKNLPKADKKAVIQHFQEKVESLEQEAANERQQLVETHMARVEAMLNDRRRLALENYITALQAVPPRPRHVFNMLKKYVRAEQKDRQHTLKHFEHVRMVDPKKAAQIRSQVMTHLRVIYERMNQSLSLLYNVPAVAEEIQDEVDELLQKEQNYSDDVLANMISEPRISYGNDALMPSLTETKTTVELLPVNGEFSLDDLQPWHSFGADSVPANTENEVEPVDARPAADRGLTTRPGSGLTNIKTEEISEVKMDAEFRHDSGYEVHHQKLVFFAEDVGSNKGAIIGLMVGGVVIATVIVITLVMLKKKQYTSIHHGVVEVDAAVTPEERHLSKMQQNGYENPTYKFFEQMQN

[2] = molecular target: Amyloid-beta precursor protein (Homo sapiens) (UniProt P05067); experiment: Inhibition of agitated amyloid beta (1 to 40) (unknown origin) aggregation at 100 uM measured at equilibrium by thioflavin T based fluorometric assay
[3] = molecular target: Amyloid-beta precursor protein (Homo sapiens) (UniProt P05067); experiment: Inhibition of agitated amyloid beta (1 to 40) (unknown origin) aggregation assessed as reduction in fibrillar aggregates at 100 uM by dot blot analysis
[4] = molecular target: Amyloid-beta precursor protein (Homo sapiens) (UniProt P05067); experiment: Inhibition of amyloid beta (1 to 40) (unknown origin) aggregation assessed as absence of fibrillar branching at equilibrium at 100 uM by uranyl acetate staining based transmission electron microscopic analysis
[5] = molecular target: Amyloid-beta precursor protein (Homo sapiens) (UniProt P05067); experiment: Inhibition of amyloid beta (1 to 40) (unknown origin) aggregation assessed as reduction in number aggregates at equilibrium at 100 uM after 24 hrs by uranyl acetate staining based transmission electron microscopic analysis
[6] = molecular target: Amyloid-beta precursor protein (Homo sapiens) (UniProt P05067); experiment: Inhibition of agitation-induced amyloid beta (1 to 40) (unknown origin) aggregation at 100 uM measured every 45 mins by thioflavin T based fluorometric assay
[7] = molecular target: Amyloid-beta precursor protein (Homo sapiens) (UniProt P05067); experiment: Inhibition of agitation-induced amyloid beta (1 to 40) (unknown origin) aggregation assessed as decrease in lag time at 100 uM measured every 30 to 45 mins by dot blot analysis relative to control
[8] = molecular target: Amyloid-beta precursor protein (Homo sapiens) (UniProt P05067); experiment: Inhibition of agitation-induced amyloid beta (1 to 40) (unknown origin) aggregation assessed as reduction in fibrillar aggregates at 100 uM measured every 30 to 45 mins by dot blot analysis
[9] = molecular target: Amyloid-beta precursor protein (Homo sapiens) (UniProt P05067); experiment: Inhibition of amyloid beta (1 to 40) (unknown origin) aggregation assessed as decrease in size of protein aggregation at equilibrium at 100 uM after 24 hrs by uranyl acetate staining based transmission electron microscopic analysis
[10] = molecular target: Amyloid-beta precursor protein (Homo sapiens) (UniProt P05067); experiment: Inhibition of agitation-induced amyloid beta (1 to 40) (unknown origin) aggregation assessed as decrease in lag time at 100 uM by dot blot analysis relative to control
[11] = molecular target: Amyloid-beta precursor protein (Homo sapiens) (UniProt P05067); experiment: Inhibition of amyloid beta (1 to 40) (unknown origin) aggregation assessed as increase in surface hydrophobicity at equilibrium by nile red dye-based spectroscopic analysis
[12] = molecular target: Amyloid-beta precursor protein (Homo sapiens) (UniProt P05067); experiment: Inhibition of amyloid beta (1 to 40) (unknown origin) aggregation assessed as circular/bird-nest like aggregate formation at equilibrium at 100 uM after 24 hrs by uranyl acetate staining based transmission electron microscopic analysis

| SMILES | fold change (FC) [1] | inhibition [2] [%] | inhibition [3] [%] | inhibition [4] | inhibition [5] | inhibition [6] [%] | fold change (FC) [7] | inhibition [8] [%] | inhibition [9] | fold change (FC) [10] | inhibition [11] | inhibition [12] |
| --- | --- | --- | --- | --- | --- | --- | --- | --- | --- | --- | --- | --- |
| CC[C@H](C)NCC(=O)N(CC(=O)N(CC(=O)N(CC(=O)N(CC(=O)N(CCCCN)CC(=O)N(CC(=O)N(CC(N)=O)[C@@H](C)c1ccccc1)[C@@H](C)CC)[C@@H](C)CC)[C@@H](C)c1ccccc1)[C@@H](C)c1ccccc1)[C@@H](C)c1ccccc1 (H-[N(1S-Me-propyl)Gly][Nspe][Nspe][Nspe][N(1S-Me-propyl)Gly][Nlys][N(1S-Me-propyl)Gly][Nspe]-NH2) | 2.2 | 76.9 | 50.5 | Active | Active |  |  |  |  |  |  |  |
| CC[C@H](C)N(CC(=O)N(CC(=O)N(CC(=O)N(CC(=O)N(CC(=O)N(CC(=O)N(CC(N)=O)[C@@H](C)c1ccccc1)[C@@H](C)c1ccccc1)[C@@H](C)CC)[C@@H](C)c1ccccc1)[C@@H](C)c1ccccc1)[C@@H](C)CC)C(=O)CNCCCCN (H-[Nlys][N(1S-Me-propyl)Gly][N(1S-Me-propyl)Gly][Nspe][Nspe][N(1S-Me-propyl)Gly][Nspe][Nspe]-NH2) | 2.7 | 83.1 | 46 | Active | Active | 81.2 | < 0.31 | 63.7 | Active | < 0.5 |  |  |
| CCCN(CC(=O)N(CCC)CC(=O)N(CC(=O)N(CC(=O)N(CCC)CC(=O)N(CC(=O)N(CC(N)=O)Cc1ccccc1)Cc1ccccc1)Cc1ccccc1)Cc1ccccc1)C(=O)CNCCCCN (H-[Nlys][NPrGly][NPrGly][Nphe][Nphe][NPrGly][Nphe][Nphe]-NH2) |  | 85.6 | 72.6 | Active | Active |  |  |  |  |  | Active | Active |
